Reference: US20260355199A1, “COMPOSITIONS AND METHODS FOR TREATING OR PREVENTING NONALCOHOLIC STEATOHEPATITIS (NASH), ANOREXIA, DEPRESSION, ENDOMETRIOSIS, AND OTHER DISEASES OR DISORDERS” (priority 2022, published 2026)
“Also recorded” adds a separate entry of the source.

Columns and labels:
TET3 [1] = assay: TET3 protein stability (cycloheximide) in RAW 264.7 cells; type: cell-based, mouse; settings: 10 μM, with cycloheximide
Procedure: For TET3 protein stability assay, cells in 24-well plates were incubated with vehicle or Bobcat339 at a final concentration of 10 μM for 3 hours, followed by addition of cycloheximide (CHX, Cell Signaling, 2112) at a final concentration of 50 μg/mL in the presence of 10 μM of Bobcat339. Proteins were harvested at 0, 1, 2, and 3 hours after addition of CHX.

Bcl2l11, Bid and Pmaip1 = assay: Pro-apoptosis gene expression in mouse peritoneal macrophages; type: cell-based; settings: TGF-b1 primed mouse peritoneal macrophages, 10 μM, 48 h
Procedure: For cultured mouse peritoneal macrophages, cells were primed with 30 ng/ml of TGF-β1 (R&D Systems, 7666-MB0-005) for 48 h (to increase TET3 expression) before Bobcat339 treatment. Bobcat339 (or DMSO) was added at a final concentration of 10 μM, followed by RNA and protein extraction at time points indicated in the figure legends.
Total RNAs were extracted from cells using PureLink RNA Mini Kit. 0.5-1 μg total RNA was reverse transcribed to cDNA in a reaction volume of 20 μL using PrimeScript RT Reagent Kit. Real-time quantitative PCR was performed in a 15 μL reaction volume containing 0.5-1 μL of cDNA using SsoAdvanced Universal SYBR Green Supermix in a Bio-Rad iCycler. Gene expression levels were normalized against RPLP0.

THP-1 cells = assay: TUNEL assay in THP-1 cells; type: cell-based, human; settings: THP-1, 10 μM, 48 h
Procedure: For TET3 expression restoration experiments, cells seeded in 24-well plates were infected with Ad-GFP or Ad-TET3 at 4000 gc/cell. Following 16 h of infection, vehicle or Bobcat339 were added at a final concentration of 10 μM. Protein and RNA were isolated 48 hours later and analyzed.
These were performed using the In Situ Cell Death Detection Kit (Sigma Aldrich, 12156792910). Briefly, cells were fixed with 4% paraformaldehyde in PBS for 1 h at RT and rinsed with PBS, followed by permeabilization with 0.1% Triton X-100 in 0.1% sodium citrate for 2 min on ice. TUNEL reaction mixture was added and incubation was carried out at 37 °C for 60 min. DAPI was added to counter-stain the cells for 1 min. The slides were coverslipped and scoped using a Keyence BZ-X700 fluorescence microscope.

TET3 [2] = assay: TET3 protein level (immunoblot/immunofluorescence) in GT1-7 cells; type: cell-based, mouse; settings: 10 μM
Procedure: (§1) Mouse GT1-7 hypothalamic neuronal cell line (Sigma-Aldrich, SCC116), human SH-SY5Y neuronal blastoma cell line (ATCC, CRL-2266), and embryonic mouse hypothalamus cell line N11 (mHypoE-N11) (Cedarlane, CLU107) were purchased and cultured according to the manufacturers' instructions. For siRNA transfection in a 24-well plate scale, cells were seeded at a density of 2×10^5 cells/well the day before transfection. To prepare siRNA transfection solution for each well of cells, 5 pmol of NT siRNA (non-targeting control siRNA, AM4636, Ambion), Tet3 siRNA (siRNA specifically targeting mouse Tet3, 4390815/s101483, Ambion), or TET3 siRNA (siRNA specifically targeting human TET3, 4392420/s47238, Ambion) (Cao et al., 2019, Oncogene, 38:5356-5366; Xu et al., 2020, Cell Rep., 30:1310-1318) were mixed with 25 μl of OPTI-MEM (Gibco, 31985-070) by gentle pipetting (Cao, T. et al., 2019, Oncogene, 38:5356-5366; Xu, Y. et al., 2020, Cell Reports, 30:1310-1318 e5). In parallel, 1.5 μl of Lipofectamine RNAiMAX (Invitrogen, 13778-150) was mixed with 25 μl of OPTI-MEM by gentle pipetting. […]
For Bobcat339 treatment (FIG. 15A and FIG. 15B), GT1-7 cells grown in 24-well plates at 2×10^5 cells/well were incubated with vehicle or Bobcat339 at a final concentration of 10 μM for 6 h, followed by RNA and protein extractions. […] Protein and RNA were isolated 48 h later and analyzed. […]

NPY and VGAT = NPY and VGAT expression in leptin-treated GT1-7 cells; type: cell-based, mouse; settings: TET3-dependent manner
Procedure: as §1, with “pipetting. Following 5 min of incubation at room temperature, the resulting 50 μl of transfection solution was added to one well of cells containing 1 ml culture media.” for “pipetting.”

Nc1nc(=O)n(-c2cccc(-c3ccccc3)c2)cc1Cl [Bobcat339, 4-Amino-1-[1,1′-biphenyl]-3-yl-5-chloro-2(1H)-pyrimidinone]
TET3 protein stability (TET3 [1]): less stable | half-life of TET3 (TET3 [1]; RAW): ~ 80 minutes | half-life of TET3 (TET3 [1]; macrophages): ~ 80 min | Bcl2l11, Bid and Pmaip1 expression (Bcl2l11, Bid and Pmaip1): an upregulation of all three pro-apoptosis genes | apoptosis (TUNEL) (THP-1 cells): a significant increase in apoptotic cell death | TET3 protein level (TET3 [2]; 6 h): a decrease in the protein level of TET3; also recorded: rapidly decreased the level of TET3 protein; also recorded: decreased TET3 expression at the protein level | TET3 protein level (TET3 [2]; 48 h, without exogenous TET3): decreased the level of TET3 protein

leptin: adipose hormone; mouse leptin L3772-1MG or human leptin L4146-1MG, Sigma Aldrich
NPY and VGAT expression (NPY and VGAT): negatively affected the expression of NPY and VGAT
